Laboratory results from PMC13128454, “Mutant p53 protein accumulation is selectively targetable by proximity-inducing drugs” (Nature Chemical Biology, 2025).
pIC50: −log10 of the molar value. Like-named read-outs stand apart in the source and are kept apart here.

Key:
Format in all cases: cell-based
[1] = tested on: 293T cells stably expressing Halo–p53-Y220C ΔTAD–mCherry versus parental 293T cells; assay: crystal violet staining; conditions: 5 days
Method: The 293T cells were plated in six-well or 12-well plates at low density (~10% confluence) and treated with compound for the indicated duration. Cells were rinsed once with PBS and then stained with crystal violet (0.5% m/v) in 20% methanol–water for 10 min. Cells were washed with water five times and air-dried overnight.

[2] = tested on: NUGC-3 cells; assay: CellTiter-Glo cell viability; conditions: NUGC3
Method: (§1) Cells were plated in 384-well plates (typically 1,500 cells per well) with varying concentrations of compounds, with a total volume of 50 μl per well. CTG reagent was added (25 μl) to the solutions, mixed and read out using an EnVision 2105 multimode plate reader.

[3] = CellTiter-Glo cell viability; conditions: human, read-out: mean_norm (normalized viability)
Method: as §1

[4] = tested on: BxPC-3 cells; assay: CellTiter-Glo cell viability; conditions: BXPC3; for mean_norm (normalized viability): 4 day
In short: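 Compound dose series applied to cells plated at roughly 1,500 per well; CellTiter-Glo detection after mixing gives the viability signal.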

[5] = tested on: p53 transcriptional targets in Huh7 cells (TP53^Y220C/Y220C); assay: Huh7 RNA-seq and GSEA; conditions: 4 μM, 24 h, versus DMSO
Method: Huh7 cells were passaged into six-well plates and treated with PMV6 (4 μM), p53-01 (4 μM) or DMSO for 24 h. Cells were washed once with cold PBS. Subsequently, TRIzol (Invitrogen) was added to cells and, following the manufacturer’s protocol, RNA was extracted. RNA concentration was monitored using a Qubit fluorometer (Thermo Fisher) and RNA integrity was analyzed using an Agilent Bioanalyzer. The NEBNext Ultra II RNA library prep kit (Illumina) was used to prepare an RNA-seq library. A NovaSeq 6000 machine (Illumina) was used for paired-end 150-bp RNA-seq. STAR/RSEM[68],[71] was used to align RNA-seq reads to the GENCODE v38 transcript ref.[72] and generate a count matrix. Raw counts were rounded and DESeq2 was used for downstream analysis. A preranked GSEA[74] was performed using the DESeq2 t statistic (versus DMSO-treated cells) as a rank metric using the Fischer p53 targets geneset.

In the case of `CC[C@@H]1C(=O)N(C)c2cnc(Nc3ccc(C(=O)NCCOCCOCCOCCOCCC(=O)N4CCC(Nc5cccc6c5cc(C#CCNc5ccc(S(C)(=O)=O)cc5OC)n6CC(F)(F)F)CC4)cc3OC)nc2N1C1CCCC1` [p53-01, PMV6-PEG4-BI2536], the “crystal violet staining” value [1] was “differential antiproliferative activity”, the pIC50 ([2]; Homo sapiens, NUGC-3, 96 h, 4 day treatment) was 5.77 and the p5301_AUC_to_10uM [2] was 0.5108. For the same molecule, the viability at 4 day ([3]; DU145 cells, Concentration 39.0625, 4 day) was 104%, the viability at 4 day ([3]; DU145 cells, Concentration 78.125, 4 day) was 101% and the viability at 4 day ([3]; DU145 cells, Concentration 156.25, 4 day) was 97.4%. The viability at 4 day ([3]; DU145 cells, Concentration 312.5, 4 day) was 96.2%, the viability at 4 day ([3]; DU145 cells, Concentration 625, 4 day) was 97.2% and the viability at 4 day ([3]; DU145 cells, Concentration 1250, 4 day) was 98.7%. It also gave a viability at 4 day ([3]; DU145 cells, Concentration 2500, 4 day) of 98.2%, a viability at 4 day ([3]; DU145 cells, Concentration 5000, 4 day) of 91.3% and a viability at 4 day ([3]; DU145 cells, Concentration 10000, 4 day) of 79.5%. The viability at 4 day ([3]; DU145 cells, Concentration 20000, 4 day) was 76.4%, the viability at 4 day ([3]; Huh7 cells, Concentration 39.0625, 4 day) was 110% and the viability at 4 day ([3]; Huh7 cells, Concentration 78.125, 4 day) was 104%. It also gave a viability at 4 day ([3]; Huh7 cells, Concentration 156.25, 4 day) of 109%, a viability at 4 day ([3]; Huh7 cells, Concentration 312.5, 4 day) of 104% and a viability at 4 day ([3]; Huh7 cells, Concentration 625, 4 day) of 108%. The viability at 4 day ([3]; Huh7 cells, Concentration 1250, 4 day) was 104%, the viability at 4 day ([3]; Huh7 cells, Concentration 2500, 4 day) was 107% and the viability at 4 day ([3]; Huh7 cells, Concentration 5000, 4 day) was 100%. It also gave a viability at 4 day ([3]; Huh7 cells, Concentration 10000, 4 day) of 102%, a viability at 4 day ([3]; Huh7 cells, Concentration 20000, 4 day) of 83.1% and a viability at 4 day ([3]; LNCaP cells, LNCAP, Concentration 39.0625, 4 day) of 96.3%. It also gave a viability at 4 day ([3]; LNCaP cells, LNCAP, Concentration 78.125, 4 day) of 93%, a viability at 4 day ([3]; LNCaP cells, LNCAP, Concentration 156.25, 4 day) of 94.9% and a viability at 4 day ([3]; LNCaP cells, LNCAP, Concentration 312.5, 4 day) of 97.9%. The viability at 4 day ([3]; LNCaP cells, LNCAP, Concentration 625, 4 day) was 108%, the viability at 4 day ([3]; LNCaP cells, LNCAP, Concentration 1250, 4 day) was 102% and the viability at 4 day ([3]; LNCaP cells, LNCAP, Concentration 2500, 4 day) was 87.3%. It also gave a viability at 4 day ([3]; MCF7 cells, Concentration 1250, 4 day) of 88.6%, a viability at 4 day ([3]; MCF7 cells, Concentration 2500, 4 day) of 64.8% and a viability at 4 day ([3]; MCF7 cells, Concentration 5000, 4 day) of 49.8%. The viability at 4 day ([3]; MCF7 cells, Concentration 10000, 4 day) was 36.9%, the viability at 4 day ([3]; MCF7 cells, Concentration 20000, 4 day) was 29.2% and the viability at 4 day ([3]; NUGC-3 cells, NUGC3, Concentration 39.0625, 4 day) was 101%. It also gave a viability at 4 day ([3]; NUGC-3 cells, NUGC3, Concentration 78.125, 4 day) of 98%, a viability at 4 day ([3]; NUGC-3 cells, NUGC3, Concentration 156.25, 4 day) of 103% and a viability at 4 day ([3]; NUGC-3 cells, NUGC3, Concentration 312.5, 4 day) of 98.2%. For the same molecule, the viability at 4 day ([3]; NUGC-3 cells, NUGC3, Concentration 625, 4 day) was 91.1%, the viability at 4 day ([3]; NUGC-3 cells, NUGC3, Concentration 1250, 4 day) was 79.9% and the viability at 4 day ([3]; NUGC-3 cells, NUGC3, Concentration 2500, 4 day) was 53.4%. It also gave a viability at 4 day ([3]; NUGC-3 cells, NUGC3, Concentration 5000, 4 day) of 42.5%, a viability at 4 day ([3]; NUGC-3 cells, NUGC3, Concentration 10000, 4 day) of 39.3% and a viability at 4 day ([3]; NUGC-3 cells, NUGC3, Concentration 20000, 4 day) of 32.6%. For the same molecule, the p5301_AUC_to_10uM [4] was 0.6983, the “mean_norm (normalized viability)” value ([4]; Concentration 625) was 0.9363 and the “mean_norm (normalized viability)” value ([4]; Concentration 1250) was 0.9354. For the same molecule, the “mean_norm (normalized viability)” value ([4]; Concentration 2500) was 0.8133, the “mean_norm (normalized viability)” value ([4]; Concentration 5000) was 0.7027 and the pIC50 ([4]; Homo sapiens, BXPC-3, 96 h, 4 day treatment) was 5.08. The “normalized enrichment score (NES), Fischer p53 targets” value [5] was 1.33.
